As usually defined, the pKi is the negative decadic logarithm of the Ki, by convention in mol/L.

SMILES strings stand for the structures. pKi: −log10 of the molar value.

In patent publication US20150031674A1, “SERINE/THREONINE KINASE INHIBITORS” (GENENTECH, INC., priority 2013, published 2015) one finds Ki data, which are given here for 30 compounds.

This test deals with human recombinant PAK1-KD protein (Homo sapiens, UniProt Q13153). Briefly: PAK1-KD (Kinase Domain) IC50 Zlyte Assay (FRET peptide substrate phosphorylation). The note with it: Z'-LYTE, Biological Example 1.
Chain of human recombinant PAK1-KD protein (Q13153 270-521 limits assumed): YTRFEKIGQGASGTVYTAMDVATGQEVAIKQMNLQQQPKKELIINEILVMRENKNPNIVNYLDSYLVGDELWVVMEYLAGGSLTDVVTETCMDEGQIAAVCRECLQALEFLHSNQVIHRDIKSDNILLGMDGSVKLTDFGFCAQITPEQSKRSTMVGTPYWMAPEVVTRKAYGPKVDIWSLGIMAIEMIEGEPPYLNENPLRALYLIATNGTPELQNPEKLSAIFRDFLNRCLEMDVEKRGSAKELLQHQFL
`Cc1cccc(-c2ccc(-c3cc4cnc(NCC(F)F)nc4n(CCC4CNCCO4)c3=O)c(C)c2)n1` (racemic) [Example I-126, 2-(2,2-Difluoroethylamino)-6-[2-methyl-4-(6-methyl-2-pyridyl)phenyl]-8-(2-morpholin-2-ylethyl)pyrido[2,3-d]pyrimidin-7-one]: the pKi was 8.60. With `CCNc1ncc2cc(-c3ccc(-c4cncc(C)n4)cc3Cl)c(=O)n(CCC3CCCN3)c2n1` (single isomer, unassigned) [Example I-20], the pKi is 7.69.

In the case of `CCNc1ncc2cc(-c3ccc(-c4cncc(C)n4)cc3Cl)c(=O)n(CCC3CNCCO3)c2n1` (single isomer, unassigned) [Example I-21], the negative logarithm of the Ki (pKi) is 8.01. For `CCNc1ncc2cc(-c3ccc(-c4cncc(C)n4)cc3Cl)c(=O)n(CCOC3CCNC3)c2n1` (single isomer, unassigned) [Example I-51], the negative-log Ki (pKi) is 7.88. On to `CCNc1ncc2cc(-c3ccc(-c4cncc(C)n4)cc3Cl)c(=O)n(CC(C)OC3CNC3)c2n1` (single isomer, unassigned) [Example I-92], for which the pKi is 7.32. Under `Cc1cncc(-c2ccc(-c3cc4cnc(NC(C)C)nc4n(CCC4CNC(=O)C4)c3=O)c(Cl)c2)n1` (single isomer, unassigned) [Example I-98, 6-[2-Chloro-4-(6-methylpyrazin-2-yl)phenyl]-2-(isopropylamino)-8-[2-(5-oxopyrrolidin-3-yl)ethyl]pyrido[2,3-d]pyrimidin-7-one] stands 7.66; under `Cc1cncc(-c2ccc(-c3cc4cnc(NC(C)C)nc4n(CCC4CNC(=O)C4)c3=O)c(Cl)c2)n1` (single isomer, unassigned) [Example I-99, 6-[2-Chloro-4-(6-methylpyrazin-2-yl)phenyl]-2-(isopropylamino)-8-[2-(5-oxopyrrolidin-3-yl)ethyl]pyrido[2,3-d]pyrimidin-7-one], 7.72; under `CNc1ncc2cc(-c3ccc(-c4cncc(C)n4)cc3Cl)c(=O)n(CCC3CCNC3=O)c2n1` (single isomer, unassigned) [Example I-102, 6-[2-Chloro-4-(6-methylpyrazin-2-yl)phenyl]-2-(methylamino)-8-[2-(2-oxopyrrolidin-3-yl)ethyl]pyrido[2,3-d]pyrimidin-7-one], 7.42.

Take `CNc1ncc2cc(-c3ccc(-c4cncc(C)n4)cc3Cl)c(=O)n(CCC3CCNC3=O)c2n1` (single isomer, unassigned) [Example I-103, 6-[2-Chloro-4-(6-methylpyrazin-2-yl)phenyl]-2-(methylamino)-8-[2-(2-oxopyrrolidin-3-yl)ethyl]pyrido[2,3-d]pyrimidin-7-one]: the pKi was 7.72.

Turning to `CNc1ncc2cc(-c3ccc(-c4cccc(C)n4)cc3C)c(=O)n(CCC3CNCCO3)c2n1` (single isomer, unassigned) [Example I-104, 6-(2-Methyl-4-(6-methylpyridin-2-yl)phenyl)-2-(methylamino)-8-(2-(morpholin-2-yl)ethyl)pyrido[2,3-d]pyrimidin-7(8H)-one], the pKi was 8.64.

Turning to `CNc1ncc2cc(-c3ccc(-c4cccc(C)n4)cc3C)c(=O)n(CCC3CNCCO3)c2n1` (single isomer, unassigned) [Example I-110], the negative logarithm of the Ki (pKi) was 8.52. `CCNc1ncc2cc(-c3ccc(-c4cccc(C)n4)cc3C)c(=O)n(CCC3CNCCO3)c2n1` (single isomer, unassigned) [Example I-112, 2-(Ethylamino)-6-(2-methyl-4-(6-methylpyridin-2-yl)phenyl)-8-(2-(morpholin-2-yl)ethyl)pyrido[2,3-d]pyrimidin-7(8H)-one]: the pKi was 9.00. Under `Cc1cccc(-c2ccc(-c3cc4cnc(NC5COC5)nc4n(CCC4CNCCO4)c3=O)c(C)c2)n1` (single isomer, unassigned) [Example I-113, 6-(2-Methyl-4-(6-methylpyridin-2-yl)phenyl)-8-(2-(morpholin-2-yl)ethyl)-2-(oxetan-3-ylamino)pyrido[2,3-d]pyrimidin-7(8H)-one] stands 8.77.

Consider `Cc1cccc(-c2ccc(-c3cc4cnc(NC5COC5)nc4n(CCC4CNCCO4)c3=O)c(C)c2)n1` (single isomer, unassigned) [Example I-114, 6-(2-methyl-4-(6-methylpyridin-2-yl)phenyl)-8-(2-(morpholin-2-yl)ethyl)-2-(oxetan-3-ylamino)pyrido[2,3-d]pyrimidin-7(8H)-one], for which the pKi was 9.15. Consider `CCNc1ncc2cc(-c3ccc(-c4cccc(C)n4)cc3C)c(=O)n(CCC3CNCCO3)c2n1` (single isomer, unassigned) [Example I-115], for which the pKi was 8.85. As to `CCNc1ncc2cc(-c3ccc(-c4cncc(C)n4)cc3Cl)c(=O)n(C(C)COC3CNC3)c2n1` (single isomer, unassigned) [Example I-118, 8-[2-(azetidin-3-yloxy)-1-methyl-ethyl]-6-[2-chloro-4-(6-methylpyrazin-2-yl)phenyl]-2-(ethylamino)pyrido[2,3-d]pyrimidin-7-one], the negative-log Ki (pKi) is 7.74. Consider `CCNc1ncc2cc(-c3ccc(-c4cncc(C)n4)cc3Cl)c(=O)n(C(C)COC3CNC3)c2n1` (single isomer, unassigned) [Example I-119, 8-[2-(azetidin-3-yloxy)-1-methyl-ethyl]-6-[2-chloro-4-(6-methylpyrazin-2-yl)phenyl]-2-(ethylamino)pyrido[2,3-d]pyrimidin-7-one], for which the pKi is 7.11. Under `CNc1ncc2cc(-c3ccc(-c4cccc(C)n4)cc3Cl)c(=O)n(CCC3CNCCO3)c2n1` (single isomer, unassigned) [Example I-124, 6-(2-Chloro-4-(6-methylpyridin-2-yl)phenyl)-2-(methylamino)-8-(2-(morpholin-2-yl)ethyl)pyrido[2,3-d]pyrimidin-7(8H)-one] stands 8.82. For `CNc1ncc2cc(-c3ccc(-c4cccc(C)n4)cc3Cl)c(=O)n(CCC3CNCCO3)c2n1` (single isomer, unassigned) [Example I-125, 6-(2-chloro-4-(6-methylpyridin-2-yl)phenyl)-2-(methylamino)-8-(2-(morpholin-2-yl)ethyl)pyrido[2,3-d]pyrimidin-7(8H)-one], the negative logarithm of the Ki (pKi) is 8.33. For `CNc1ncc2cc(-c3ccc(-c4cccc(C)n4)cc3Cl)c(=O)n(CC3CNCCS3(=O)=O)c2n1` (single isomer, unassigned) [I-197 Isomer A, 6-[2-chloro-4-(6-methyl-2-pyridyl)phenyl]-8-[(1,1-dioxo-1 4-thiazinan-2-yl)methyl]-2-(methylamino)pyrido[2,3-d]pyrimidin-7-one], the pKi is 7.79. Regarding `CNc1ncc2cc(-c3ccc(-c4cccc(C)n4)cc3Cl)c(=O)n(CC3CNCCS3(=O)=O)c2n1` (single isomer, unassigned) [I-197 Isomer B, 6-[2-chloro-4-(6-methyl-2-pyridyl)phenyl]-8-[(1,1-dioxo-1 4-thiazinan-2-yl)methyl]-2-(methylamino)pyrido[2,3-d]pyrimidin-7-one], the pKi is 7.50. For `CCNc1ncc2cc(-c3ccc(-c4cncc(C)n4)cc3Cl)c(=O)n(CCC(O)CO)c2n1` (stereo in doubt) [Example I-79, (R)-6-(2-Chloro-4-(6-methylpyrazin-2-yl)phenyl)-8-(3,4-dihydroxybutyl)-2-(ethylamino)pyrido[2,3-d]pyrimidin-7(8H)-one], the negative logarithm of the Ki (pKi) is 7.36. Take `CNc1ncc2cc(-c3ccc(-c4cncc(C)n4)cc3Cl)c(=O)n(CCCCN)c2n1` [Compound I-42, 8-(4-aminobutyl)-6-[2-chloro-4-(6-methylpyrazin-2-yl)phenyl]-2-(methylamino)pyrido[2,3-d]pyrimidin-7-one]: the pKi is 7.63. Under `CCNc1ncc2cc(-c3ccc(-c4cncc(C)n4)cc3Cl)c(=O)n(CCN3CCN(C4COC4)CC3)c2n1` [Example I-23, 6-(2-chloro-4-(6-methylpyrazin-2-yl)phenyl)-2-(ethylamino)-8-(2-(4-(oxetan-3-yl)piperazin-1-yl)ethyl)pyrido[2,3-d]pyrimidin-7(8H)-one] stands 6.87; under `CCNc1ncc2cc(-c3ccc(-c4cncc(C)n4)cc3Cl)c(=O)n(CC(O)CN)c2n1` (stereo not drawn) [Example I-24, 8-(3-amino-2-hydroxy-propyl)-6-[2-chloro-4-(6-methylpyrazin-2-yl)phenyl]-2-(ethylamino)pyrido[2,3-d]pyrimidin-7-one], 7.56. With `CCNCC(O)Cn1c(=O)c(-c2ccc(-c3cncc(C)n3)cc2Cl)cc2cnc(NCC)nc21` (stereo not drawn) [Example I-25, 6-[2-chloro-4-(6-methylpyrazin-2-yl)phenyl]-2-(ethylamino)-8-[3-(ethylamino)-2-hydroxy-propyl]pyrido[2,3-d]pyrimidin-7-one], the pKi is 7.17. In the case of `CCNc1ncc2cc(-c3ccc(-c4cncc(C)n4)cc3Cl)c(=O)n(CC(=O)N3CCOCC3)c2n1` [Example I-26, 6-[2-chloro-4-(6-methylpyrazin-2-yl)phenyl]-2-(ethylamino)-8-(2-morpholino-2-oxo-ethyl)pyrido[2,3-d]pyrimidin-7-one], the negative-log Ki (pKi) was 6.86. `CCNc1ncc2cc(-c3ccc(-c4cncc(C)n4)cc3Cl)c(=O)n(CCN3CCN(C)CC3)c2n1` [Example I-27, 6-(2-Chloro-4-(6-methylpyrazin-2-yl)phenyl)-2-(ethylamino)-8-(2-(4-methylpiperazin-1-yl)ethyl)pyrido[2,3-d]pyrimidin-7(8H)-one]: the pKi is 7.32.

As to `CCNc1ncc2cc(-c3ccc(-c4cncc(C)n4)cc3Cl)c(=O)n(C3CCN(C(=O)CN)C3)c2n1` (stereo not drawn) [Example I-28, 8-(1-(2-Aminoacetyl)pyrrolidin-3-yl)-6-(2-chloro-4-(6-methylpyrazin-2-yl)phenyl)-2-(ethylamino)pyrido[2,3-d]pyrimidin-7(8H)-one], the pKi is 7.59. In the case of `CCNc1ncc2cc(-c3ccc(-c4cncc(C)n4)cc3Cl)c(=O)n(C3CCN(C(=O)CN)CC3)c2n1` [Example I-29, 8-(1-(2-Aminoacetyl)piperidin-4-yl)-6-(2-chloro-4-(6-methylpyrazin-2-yl)phenyl)-2-(ethylamino)pyrido[2,3-d]pyrimidin-7(8H)-one], the pKi is 7.77.
